# Source: PubChem BioAssay AID2060501 (Molecular Pharmacology Branch, DTP, NCI, 2025)
# Several values for one entry are separate records, joined by “and”; a condition that tells them apart may be missing. Identical values can stand only once.
# Tested on: 282377-053-R-J1-PDC complex spheroids, viability
# Experiment: Anticancer human tumor 282377-053-R-J1-PDC patient-derived colon adenocarcinoma cell line growth inhibition [GQUAD]
# Conditions: for viability, T/C: stronger effect = lower value
# Text: DNA G-quadruplex Stabilizer Agents in Combinations in Complex Spheroids
# A high-throughput screen of multi-cell type tumor spheroids was designed to identify active combinations of DNA G-quadruplex stabilizer agents and targeted small molecules. Complex spheroids include a stromal component modeled by human endothelial cells (HUVEC) and fibroblasts modeled by human mesenchymal stem cells (MSCs). The concentration ranges selected for each drug and investigational agent were based upon clinically achievable concentrations if the clinical Cmax of the agent was known.
# Compounds. The drugs and investigational agents: pidnarulex (CX-5461; NSC782164), APTO-253 (NSC789042), BRACO-19 (NSC847499), peposertib (NSC802822), ceralasertib (NSC780249), elimusertib (NSC800525), camonsertib (NSC841442), AZD-1390 (NSC803789), olaparib (NSC753686), talazoparib (NSC767125), ART-558 (NSC835418), sotorasib (NSC818433), MRTX-1133 (NSC836407), SN-38 (NSC673596), topotecan (NSC609699), etoposide (NSC141540), doxorubicin (NSC123127), gemcitabine (NSC613327), 5-fluorouracil (NSC19893), paclitaxel (NSC125973), vemurafenib (NSC761431), panobinostat (NSC761190), R-306465 (JNJ-16241199; NSC773264), adavosertib (NSC754352), TP-3654 (NSC805149), carboplatin (NSC241240), KSQ-4279 (NSC840948), and staurosporine (NSC755774) were obtained from the National Cancer Institute (NCI) Developmental Therapeutics Program Chemical Repository (34). The FDA-approved anticancer drug set is available from the NCI Developmental Therapeutics Program. […] The stock solutions were prepared in dimethyl sulfoxide (DMSO, Sigma-Aldrich, St. Louis, MO, cat. D2650) at 800-fold the tested concentration and stored at -70 degrees C prior to their use. All drugs and investigational agents were tested over a range starting from a high concentration at or near the clinical Cmax and decreasing in half-log increments. If the clinical Cmax for an agent had not been determined, the highest concentration tested was 10 microM.
# 2.3 Cell Culture. All cells were maintained in an incubator at 37 degrees C and 5% CO2 with 95% humidity. The PDC lines were cultured according to standard operating procedures established by the NCI PDMR. All PDCs were thawed and cultured in Matrigel-coated flasks prepared with a working solution of 1X Ham's F-12 nutrient mix, without supplementation (Invitrogen, cat. 11765054), 100 U/mL penicillin-streptomycin (Invitrogen, cat. 15140122), and 2.5% Matrigel (Corning Inc., cat. 354248) for the first three passages. The 857933-349-R-J2-PDC line was cultured in 6C/Colon 1B media, which includes advanced DMEM/F-12 (Thermo Fisher Scientific, cat. 12634028), 10 mM HEPES (Thermo Fisher Scientific, cat. 15630080), 1X GlutaMAX supplement (Thermo Fisher Scientific, cat. 35050061), 0.1 mg/mL primocin (InvivoGen, cat. ant-pm-2), 10% defined fetal bovine serum, heat inactivated (HyClone Laboratories Inc., cat. SH30070.03HI), 50% L-WRN conditioned media (ATCC, cat. CRL-3276), 1.25 mM N-Acetyl-L-cysteine (Sigma-Aldrich, cat. A9165), 10 mM nicotinamide (Sigma-Aldrich, cat. N0636), 1X B-27 supplement (Thermo Fisher Scientific, cat. 17504044), 1X N-2 supplement (Thermo Fisher Scientific, cat. 17502048), 10 microM Y-27632 dihydrochloride (Tocris Bioscience, cat. 1254), and 50 ng/mL human EGF recombinant protein (Thermo Fisher Scientific, cat. PHG0311). The 485176-168-R4-J1-PDC line was cultured in Panc media, which includes all 6C/Colon 1B media components plus 100 ng/mL human FGF-10 (Thermo Fisher Scientific, cat. 100-26), 500 nM SB-431542 (Selleckchem, cat. S1067), and gastrin (Tocris, cat. 3006).
# […]
# 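Note: spheroids exposed to compounds for 7 days before readout.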
# 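Throughout, for viability, T/C: percent of vehicle DMSO control viability with 100% = untreated-like growth.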
structure (smiles),measurement,setting,value
COc1cc(C2c3cc4c(cc3C(OC3OC5COC(C)OC5C(O)C3O)C3COC(=O)C23)OCO4)cc(OC)c1O (stereo not given),"viability, T/C",compound 0.0316 µM,111% and 82.8% and 104%
same,"viability, T/C",compound 0.1 µM,90.5% and 97% and 92.2%
same,"viability, T/C",compound 0.316 µM,111% and 90.5% and 98.7%
same,"viability, T/C",compound 1 µM,99.6% and 110% and 104%
same,"viability, T/C",compound 3.16 µM,61.1% and 67.3% and 96.7%
same,"viability, T/C",compound 10 µM,56.5% and 50% and 72.2%
same,IC50,curve of compound,> 10 µM
COc1ncnc(C2CC2)c1-c1ncc2cnn(Cc3ccc(-c4nc(C(F)(F)F)cn4C(C)C)cc3)c2n1,"viability, T/C",compound 0.0316 µM,101% and 109% and 104%
same,"viability, T/C",compound 0.1 µM,102% and 106% and 78.5%
same,"viability, T/C",compound 0.316 µM,102% and 82.9% and 81.3%
same,"viability, T/C",compound 1 µM,109% and 91.4% and 78.3%
same,"viability, T/C",compound 3.16 µM,106% and 86.4% and 75.8%
same,IC50,curve of compound,> 10 µM and 5.29 µM
CC(C)n1c(=O)n(C)c2cnc3cc(F)c(-c4ccc(OCCCN5CCCCC5)nc4)cc3c21,"viability, T/C",compound 0.0316 µM,104% and 100% and 77.6%
same,"viability, T/C",compound 0.1 µM,107% and 87.5% and 98.7%
same,"viability, T/C",compound 0.316 µM,94.4% and 95.6% and 105%
same,"viability, T/C",compound 1 µM,94.8% and 106% and 92.8%
same,"viability, T/C",compound 3.16 µM,102% and 97.1% and 111%
same,"viability, T/C",compound 10 µM,113% and 80.3% and 102%
same,IC50,curve of compound,> 10 µM
Cc1[nH]c2ccccc2c1CCNCc1ccc(/C=C/C(=O)NO)cc1,"viability, T/C",compound 0.000999 µM,108% and 110% and 106%
same,"viability, T/C",compound 0.00316 µM,88.2% and 101% and 95.5%
same,"viability, T/C",compound 0.00999 µM,84.7% and 96.6% and 98.5%
same,"viability, T/C",compound 0.0316 µM,97.4% and 118% and 105%
same,"viability, T/C",compound 0.0999 µM,115% and 98.6% and 72.2%
same,IC50,curve of compound,> 0.316 µM and 0.185 µM and 0.145 µM
CC(C)n1c(=O)n(C)c2cnc3cc(F)c(-c4ccc(OCCCN5CCCCC5)nc4)cc3c21 + CN(C)c1ccc(Nc2c3ccc(NC(=O)CCN4CCCC4)cc3nc3cc(NC(=O)CCN4CCCC4)ccc23)cc1,IC50,"curve of first compound, second compound 0.0316 µM",> 10 µM
same,IC50,"curve of first compound, second compound 0.1 µM",> 10 µM
same,IC50,"curve of first compound, second compound 0.316 µM",> 10 µM
same,IC50,"curve of first compound, second compound 1 µM",> 10 µM
same,IC50,"curve of first compound, second compound 3.16 µM",> 10 µM
same,IC50,"curve of first compound, second compound 10 µM",> 10 µM
same,"viability, T/C","second compound 0.0316 µM, first compound 0.0316 µM",97.9%
same,"viability, T/C","second compound 0.0316 µM, first compound 0.1 µM",108%
same,"viability, T/C","second compound 0.0316 µM, first compound 0.316 µM",102%
same,"viability, T/C","second compound 0.0316 µM, first compound 1 µM",106%
same,"viability, T/C","second compound 0.0316 µM, first compound 3.16 µM",104%
same,"viability, T/C","second compound 0.0316 µM, first compound 10 µM",101%
same,"viability, T/C","second compound 0.1 µM, first compound 0.0316 µM",92.5%
same,"viability, T/C","second compound 0.1 µM, first compound 0.1 µM",101%
same,"viability, T/C","second compound 0.1 µM, first compound 0.316 µM",89.5%
same,"viability, T/C","second compound 0.1 µM, first compound 1 µM",108%
same,"viability, T/C","second compound 0.1 µM, first compound 3.16 µM",89.4%
same,"viability, T/C","second compound 0.1 µM, first compound 10 µM",90.9%
same,"viability, T/C","second compound 0.316 µM, first compound 0.0316 µM",100%
same,"viability, T/C","second compound 0.316 µM, first compound 0.1 µM",107%
same,"viability, T/C","second compound 0.316 µM, first compound 0.316 µM",108%
same,"viability, T/C","second compound 0.316 µM, first compound 1 µM",103%
same,"viability, T/C","second compound 0.316 µM, first compound 3.16 µM",88.3%
same,"viability, T/C","second compound 0.316 µM, first compound 10 µM",101%
same,"viability, T/C","second compound 1 µM, first compound 0.0316 µM",106%
same,"viability, T/C","second compound 1 µM, first compound 0.1 µM",96.8%
same,"viability, T/C","second compound 1 µM, first compound 0.316 µM",99.7%
same,"viability, T/C","second compound 1 µM, first compound 1 µM",94.4%
same,"viability, T/C","second compound 1 µM, first compound 3.16 µM",105%
same,"viability, T/C","second compound 1 µM, first compound 10 µM",91%
same,"viability, T/C","second compound 3.16 µM, first compound 0.0316 µM",113%
same,"viability, T/C","second compound 3.16 µM, first compound 0.1 µM",108%
same,"viability, T/C","second compound 3.16 µM, first compound 0.316 µM",102%
same,"viability, T/C","second compound 3.16 µM, first compound 1 µM",114%
same,"viability, T/C","second compound 3.16 µM, first compound 3.16 µM",110%
same,"viability, T/C","second compound 3.16 µM, first compound 10 µM",108%
same,"viability, T/C","second compound 10 µM, first compound 0.0316 µM",106%
same,"viability, T/C","second compound 10 µM, first compound 0.1 µM",102%
same,"viability, T/C","second compound 10 µM, first compound 0.316 µM",110%
same,"viability, T/C","second compound 10 µM, first compound 1 µM",99.7%
same,"viability, T/C","second compound 10 µM, first compound 3.16 µM",97.7%
same,"viability, T/C","second compound 10 µM, first compound 10 µM",57.7%
C#Cc1c(F)ccc2cc(O)cc(-c3ncc4c(N5CC6CCC(C5)N6)nc(OCC56CCCN5CC(F)C6)nc4c3F)c12 (stereo not given),"viability, T/C",compound 0.0316 µM,103% and 112% and 90.1%
same,"viability, T/C",compound 0.1 µM,102% and 93.9% and 80.2%
same,"viability, T/C",compound 0.316 µM,110% and 81.1% and 95.1%
same,"viability, T/C",compound 1 µM,86.2% and 90.6% and 93.1%
same,"viability, T/C",compound 3.16 µM,101% and 33.1% and 95.4%
same,"viability, T/C",compound 10 µM,82.8% and 42.6% and 77.7%
same,IC50,curve of compound,> 10 µM and 2.42 µM
